# Patent publication US20250025500A1, “PHOSPHATASE INHIBITORS AS NK CELLS MODULATORS FOR THE TREATMENT OF CANCER” (Kanyr Pharma Inc., priority 2021, published 2025)
# B1: IL-4: Th2 cytokine IL-4 added to NK-92 culture (protein, UniProt P05112 25-153, looked up)
# Interleukin-4: HKCDITLQEIIKTLNSLTEQKTLCTELTVTDIFAASKNTTEKETFCRAATVLRQFYSHHEKDTRCLGATAQQFHRHKQLIRFLKRLDRNLWGLAGLNSCPVKEANQSTLENFLERLKTIMREKYSKCSS
# Tests used:
# Assay type in all cases: cell-based, Human
# [1] = system: NK-92 cells against Reh cells; assay: NK-92 cytolytic assay against NK resistant Reh target cells; conditions: 30 μM three days, IL-2 100 IU/mL, 3 h assay
# Experimental: Human NK cell line NK-92 was purchased from American Type Culture Collection (ATCC) and cultured in α-MEM Essential Medium (no ribonucleoside and deoxyribonucleoside) supplemented with 0.2 mM Myo-inositol, 0.02 mM Folic Acid, 0.1 mM β-mercaptoethanol, 1% of Non-essential Amino Acids, 1×L-Glutamax, 1% of Penicillin/Streptomycin, 12.5% of heat-inactivated Horse, and 12.5% of heat-inactivated Characterized Fetal Bovine Serum or FBS. The media was supplemented freshly with 200 IU/mL of IL-2 upon cell thawing for one passage and 100 IU/mL of IL-2 for cell expansion. Human tumor cell lines K-562 and Reh were purchased from ATCC and were cultured in RPM11640 Medium supplemented with 1% of Penicillin/Streptomycin and 10% of heat inactivated FBS. HEK293T/17 cells and HCT116 cells were cultured in Dulbecco's Modified Eagle's Medium (DMEM) High Glucose Medium supplemented with 1% of Penicillin/Streptomycin and 10% of FBS. All cell lines were maintained in 5% CO2, 37° C. incubator, except that NK-92 were maintained in 6.5% CO2 incubator at 37° C. […]
# NK-92 anti-tumor cytolysis function was assessed by flow cytometry-based analysis. […] Flow cytometry sample acquisition was performed with BDO LSRFortessa™ with a UV laser at Flow Cytometry Core Facility, McGill University, and data was analyzed with FlowJo™ 10.7.1 and summarized with Prism™ 9 (GraphPad™). […]
# [2] = system: NK-92 cells against K-562 cells; assay: NK-92 cytolytic assay against K-562 tumor target cells (flow cytometry); conditions: three days
# Experimental: Human NK cell line NK-92 was purchased from American Type Culture Collection (ATCC) and cultured in α-MEM Essential Medium (no ribonucleoside and deoxyribonucleoside) supplemented with 0.2 mM Myo-inositol, 0.02 mM Folic Acid, 0.1 mM β-mercaptoethanol, 1% of Non-essential Amino Acids, 1×L-Glutamax, 1% of Penicillin/Streptomycin, 12.5% of heat-inactivated Horse, and 12.5% of heat-inactivated Characterized Fetal Bovine Serum or FBS. The media was supplemented freshly with 200 IU/mL of IL-2 upon cell thawing for one passage and 100 IU/mL of IL-2 for cell expansion. Human tumor cell lines K-562 and Reh were purchased from ATCC and were cultured in RPM11640 Medium supplemented with 1% of Penicillin/Streptomycin and 10% of heat inactivated FBS. HEK293T/17 cells and HCT116 cells were cultured in Dulbecco's Modified Eagle's Medium (DMEM) High Glucose Medium supplemented with 1% of Penicillin/Streptomycin and 10% of FBS. All cell lines were maintained in 5% CO2, 37° C. incubator, except that NK-92 were maintained in 6.5% CO2 incubator at 37° C. All cell lines were maintained below 30 passages and tested regularly for mycoplasma infection using PCR.
# NK-92 anti-tumor cytolysis function was assessed by flow cytometry-based analysis. Tumor target cells K-562 and Reh were labelled with cell tracker CFSE ([…]) or CMRA (5 μM) according to manufacturer's protocol at a maximum of one day before cytolysis experiment. On the experiment day, labelled tumor target cells were washed once with PBS and resuspend to desired cell concentration in complete cell media. NK-92 cells were washed and resuspended in complete media without cytokines to desired cell concentration. NK-92 cells and tumor target cells were plated at various effector: target (E:T) ratios with basal cell numbers at 50,000 cells per well in round-bottom 96-well plate and were co-cultured for 3 hours in 5% CO2, 37° C. incubator. After co-culture, cells were washed once with ice-cold PBS and stained with fixable viability dyes: Aqua (Invitrogen™) or UV Blue (Invitrogen™) or eFluor 780 (eBioscience Invitrogen™) at 1:2000 in dark for 20 mins at 4° C. Stained cells were washed twice with ice cold PBS and were fixed with 1% Paraformaldehyde (PFA) for 1 hour or 2% PFA for 30 mins in dark at 4° C. Flow cytometry sample acquisition was performed with BDO LSRFortessa™ with a UV laser at Flow Cytometry Core Facility, McGill University, and data was analyzed with FlowJo™ 10.7.1 and summarized with Prism™ 9 (GraphPad™). Calculation for % of specific cytolysis was followed by the equation: […]
# NK-92 cells = assay: Lytic granule protein expression in NK-92 (flow cytometry, Western blot)
# Experimental: (§1) Total cell lysate was prepared with modified RIPA buffer (1M Tris-HCl (pH 7.5), 5M NaCl, 0.25% sodium deoxycholate, 10% NP-40 and 10 mM sodium fluoride) supplemented with ethylenediaminetetraacetic acid (EDTA)-free protease inhibitor (Roche™) and 2 mM sodium orthovanadate (Sigma-Aldrich™). Protein levels were quantified by bicinchoninic acid (BCA) assay. Protein lysate was separated by 10% SDS-PAGE and Western analysis was performed using primary antibodies listed in the tables below followed with horseradish peroxidase (HRP, 1:10,000, Jackson ImmunoResearch™) conjugated secondary antibodies.
# NK-92 cells pre-treated with L598 (30 μM) or vehicle control were stimulated with K-562 tumor target cells [effector: target (E:T) at 1:1] or PMA/lonomycin (1 μg/mL each) or no-stimulation control with K-562 complete media, respectively. Anti-CD107a or LAMP-1 antibody (1:100, PE/Cy7 conjugated, clone H4A3, from BioLegend®) was added to cells at the start of degranulation assay. Golgi stop (containing Monensin, 1 μM) and Golgi plug (containing Brefeldin A, 4 μg/mL) were added to cells one hour after degranulation assay started and were kept until the end of the 6-hour-degranulation assay. Intracellular staining of GrB (1:40, PE conjugated, clone QA18A28, from BioLegend®) and PRF (1:40, FITC conjugated, clone B-D48, from BioLegend®) were performed with the Fixation/Permeabilization Solution Kit (BD® Biosciences) according to the manufacture's protocol. Cells were stained with fixable viability dye (1:2000) for 20 mins on ice and in dark, and blocked with FcBlock (1:20, diluted in 1× Perm/Wash buffer, Human truStain FcX from BioLegend®) for 5 mins at room temperature and in dark before intracellular staining. Cell gating and percentage of population quantification was based on no-stimulation control. For kinetics of degranulation assay, measurements were taken over three hours at 15 mins, 30 mins, 60 mins, 120 mins and 180 mins, with L598 (30 μM, three days) treated group and vehicle control group under the condition of tumor target cell K-562 stimulation (E: T at 1:1) or no stimulation. Intracellular cytolytic granule contents GrA, GrB and PRF were measured as mentioned previously.
# [3] = system: JAK/STAT signaling in NK-92 cells; assay: JAK/STAT signaling Western blot and IL-2 stimulation assay in NK-92; conditions: regular cell culture, inhibitor titration, three days
# Experimental: as §1
# For cytokine stimulation assay, NK-92 cells were pre-treated with L598 (30 μM) or vehicle control for three days. Before IL-2 stimulation, NK-92 cells were washed once with serum depleted cell media (no IL-2) and were starved for six hours in presence of L598 or vehicle control. After starvation, NK-92 cells were stimulated with IL-2 across a gradient concentration ranging from 0 to 90 IU/mL for 15 mins at 37° C. After incubation, cells were directly lysed with 2× concentrated TNE buffer and then boiled in 1× Laemmli Buffer to prepare cell lysates. Two independent experiments were performed.
molecule,measurement,setting,value
KQ791,NK-92 cytolysis towards NK resistant target cells Reh,[1],had no effect
same,tumor cytolysis by NK-92 against K-562 with inhibitor titration,"[2]; dosage increased up to 90 μM, various E:T ratios",gradual increasing of tumor cytolysis
same,protein expression of perforin and granzyme B,"NK-92 cells; gradual increasing concentration, three days",upregulated in a dosage dependent manner
same,granzyme A protein expression,NK-92 cells; with or without inhibitor treatment,relatively stable
same,phosphorylation of STAT2 and STAT6,[3],relatively stable
same,"phosphorylation of STAT1, STAT3, STAT4 and STAT5",[3]; dosage dependent,increased phosphorylation
TGF-β1: immune regulatory cytokine added to NK-92 culture,effect of added TGF-β1 on NK-92 cytolysis against K-562,"[2]; TGF-β 10 ng/mL, IL-2 media",significantly reduced
B1,effect of added IL-4 on NK-92 cytolysis against K-562,"[2]; IL-4 10 ng/mL, IL-2 media, with or without L598",did not reduce nor improve
